Results published in paper PMC8387997 (ACS Omega, 2021).
“Also recorded” adds a separate entry of the source.

Columns and labels:
PB1(5) = PB1(5) (Homo sapiens, UniProt Q86U86); experiment: bromoSCAN; type: binding; settings: for selectivity for PB1(5) over SMARCA2B: from bromoSCAN KD values
PB1(2) = PB1(2) (Homo sapiens, UniProt Q86U86); experiment: bromoSCAN; type: binding
SMARCA2B = SMARCA2B (Homo sapiens, UniProt P51531); experiment: bromoSCAN; type: binding
BRD9 = BRD9 versus other bromodomains; cited from earlier work
[1] = system: panel of 32 bromodomains, including BET bromodomains; experiment: bromoMAX panel screen, Eurofins; type: binding; settings: screened at 10 μM against 32 bromodomains

PB1(5), sequence (Q86U86 653-763 limits assumed): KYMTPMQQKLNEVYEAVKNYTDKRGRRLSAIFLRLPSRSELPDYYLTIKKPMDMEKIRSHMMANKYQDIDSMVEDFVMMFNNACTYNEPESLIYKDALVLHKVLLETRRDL
PB1(2), sequence (Q86U86 177-287 limits assumed): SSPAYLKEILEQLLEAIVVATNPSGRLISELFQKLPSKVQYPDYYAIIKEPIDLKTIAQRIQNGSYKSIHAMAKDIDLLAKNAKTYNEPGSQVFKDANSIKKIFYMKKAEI
SMARCA2B, sequence (P51531 1-1572 isoform P51531-2): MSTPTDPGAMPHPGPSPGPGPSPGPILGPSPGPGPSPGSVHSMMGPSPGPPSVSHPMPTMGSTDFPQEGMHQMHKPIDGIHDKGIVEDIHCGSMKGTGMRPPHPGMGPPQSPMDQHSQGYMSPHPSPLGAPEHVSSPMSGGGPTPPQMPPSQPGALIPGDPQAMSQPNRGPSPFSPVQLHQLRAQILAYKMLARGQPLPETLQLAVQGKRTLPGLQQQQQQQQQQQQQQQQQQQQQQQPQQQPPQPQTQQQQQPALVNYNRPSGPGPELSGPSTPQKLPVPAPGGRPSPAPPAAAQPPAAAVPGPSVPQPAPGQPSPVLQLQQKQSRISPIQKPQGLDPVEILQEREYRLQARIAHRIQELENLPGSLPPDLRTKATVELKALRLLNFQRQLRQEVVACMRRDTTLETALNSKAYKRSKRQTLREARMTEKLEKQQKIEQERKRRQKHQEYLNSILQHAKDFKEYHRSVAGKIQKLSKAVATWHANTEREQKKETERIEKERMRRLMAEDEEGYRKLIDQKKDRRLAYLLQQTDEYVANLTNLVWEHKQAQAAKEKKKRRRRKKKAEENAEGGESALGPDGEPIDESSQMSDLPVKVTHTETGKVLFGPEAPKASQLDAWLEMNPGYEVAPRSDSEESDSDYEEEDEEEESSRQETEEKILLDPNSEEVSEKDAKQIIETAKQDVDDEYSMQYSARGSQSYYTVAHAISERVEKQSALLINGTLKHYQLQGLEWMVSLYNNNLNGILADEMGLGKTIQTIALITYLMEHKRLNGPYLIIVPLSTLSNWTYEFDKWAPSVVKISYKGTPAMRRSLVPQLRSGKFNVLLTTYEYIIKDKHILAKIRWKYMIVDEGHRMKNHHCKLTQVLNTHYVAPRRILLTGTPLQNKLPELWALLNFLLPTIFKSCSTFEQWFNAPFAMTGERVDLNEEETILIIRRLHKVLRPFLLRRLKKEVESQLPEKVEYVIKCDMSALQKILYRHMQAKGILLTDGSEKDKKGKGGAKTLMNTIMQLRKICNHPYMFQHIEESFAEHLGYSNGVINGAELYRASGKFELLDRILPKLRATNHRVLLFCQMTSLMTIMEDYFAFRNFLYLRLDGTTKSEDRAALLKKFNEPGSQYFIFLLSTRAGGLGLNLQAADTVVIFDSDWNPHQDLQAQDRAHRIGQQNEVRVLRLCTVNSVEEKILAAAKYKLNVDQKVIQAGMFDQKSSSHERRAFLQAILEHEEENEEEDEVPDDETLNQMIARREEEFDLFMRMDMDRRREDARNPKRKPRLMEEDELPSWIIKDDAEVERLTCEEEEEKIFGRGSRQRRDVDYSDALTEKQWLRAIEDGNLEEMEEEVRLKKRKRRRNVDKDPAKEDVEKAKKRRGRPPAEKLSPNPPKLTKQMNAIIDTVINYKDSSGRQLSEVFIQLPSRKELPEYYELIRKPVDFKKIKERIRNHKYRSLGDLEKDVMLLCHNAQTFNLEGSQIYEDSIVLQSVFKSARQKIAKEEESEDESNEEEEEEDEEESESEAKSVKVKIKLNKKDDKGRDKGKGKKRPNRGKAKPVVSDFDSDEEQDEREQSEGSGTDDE

Row | Compound | Kd (PB1(5)) [nM] | selectivity for PB1(5) over SMARCA2B (PB1(5)) [fold] | Kd (PB1(2)) [nM] | Kd (SMARCA2B) [nM] | selectivity over a panel of other bromodomains (BRD9) | binding profile in bromoMAX panel [1] | selectivity for PB1(2) over SMARCA2B (PB1(2); from bromoSCAN KD values) [fold]
1 | CCC(/C=C1\CCCn2c1nc(=O)c1c(Cl)cccc12)CC [Compound 21, (E)-7-Chloro-4-(2-ethylbutylidene)-1,2,3,4-tetrahydro-6H-pyrido[1,2-a]quinazolin-6-one] | 1100 | ~24 | 5400 | 26000 | – | – | –
2 | CCn1cc(-c2cccc(C(F)(F)F)c2)c2sc(C(=N)NC3CCS(=O)(=O)CC3)cc2c1=O [I-BRD9] | – | – | – | – | more than 70 fold | – | –
3 | CCC(CC)C1CC12CCn1c2nc(=O)c2c(Cl)cccc21 (centres unmarked) [LM146, 6′-Chloro-2-(pentan-3-yl)-1′,2′-dihydro-5′H-spiro[cyclopropane-1,3′-pyrrolo[1,2-a]quinazolin]-5′-one] | 61 | ~34 | 110 | 2100 | – | does not interact with bromodomains outside of sub-family VIII; also recorded: only binds to bromodomains within the sub-family VIII; also recorded: no binding to any bromodomains outside the sub-family VIII | ~19
